Reference: patent US20230364057A1, “BACTERIAL DNA GYRASE INHIBITORS AND METHODS OF USE THEREOF” (THE FLORIDA INTERNATIONAL UNIVERSITY BOARD OF TRUSTEES, priority 2022, published 2023)

Assays:
E. coli DNA gyrase [1] = target: T1, E. coli DNA gyrase (Escherichia coli (strain K12), UniProt P0AES4+P0AES6); test: biochemical; assay type: biochemical
E. coli DNA gyrase [2] = target: T1, E. coli DNA gyrase; test: Agarose gel-based DNA gyrase inhibition assay; assay type: biochemical
Procedure: 100 ng of DNA gyrase was used to supercoil the rx pAB1 in the presence of different concentrations of a gyrase inhibitor. […] Samples were analyzed by electrophoresis in 1% w/v agarose gels followed by ethidium bromide staining and photographed under UV light.

[3] = IC50 (50-200 µM), bin of Table 2
[4] = IC50 ([…]-50 µM), bin of Table 2

Compound | inhibition of E. coli DNA gyrase activities (E. coli DNA gyrase [2]; 50 µM of compounds) | inhibition of E. coli DNA gyrase activities (E. coli DNA gyrase [2]; 200 µM of compounds) | further results
O=C(O)CC(C(=O)O)N1C(=O)/C(=C/c2ccc(-c3nc4ccccc4s3)o2)SC1=S (centres unmarked) [Compound 62] | almost completely inhibited | completely inhibited | IC50 (E. coli DNA gyrase [1]; [3]): 50 to 200 µM
Cc1cc(/C=C2/SC(=S)N(c3cccc(Cl)c3)C2=O)c(C)n1-c1cccnc1 [Compound 171] | completely inhibited | – | IC50 (E. coli DNA gyrase [1]; IC50 (15-[…] µM), bin of Table 2): 15 to 25 µM
CCOC(=O)c1cc2c(=Cc3ccc(N(C)C)cc3)c3ccccc3n2[n+]1C.O=S(=O)([O-])C(F)(F)F [Compound 239] | – | completely inhibited | –
O=C(/C=C/c1ccc(O)c(O)c1)O[C@@H]1CC(O)(C(=O)O)C[C@@H](OC(=O)/C=C/c2ccc(O)c(O)c2)C1O (some centres unmarked) [3,5-dicaffeoylquinic acid, reference compound] | – | – | inhibition of E. coli DNA gyrase activities (E. coli DNA gyrase [1]): strongly inhibit
O=C(O)C(c1ccccc1)N1C(=O)/C(=C\c2ccc(-c3cccc(Cl)c3)o2)SC1=S (centres unmarked) [Compound 176] | completely inhibited | – | –
CN1C(=O)/C(=C\c2ccc(-c3ccccc3)o2)SC1=S [Compound 57] | – | almost completely inhibited | –
CCOC(=O)c1cc(-c2ccc(N3CCOCC3)cc2)nn1-c1ccccc1C(=O)O [Compound 7] | completely inhibited | completely inhibited | IC50 (E. coli DNA gyrase [1]; [4]): 25 to 50 µM
O=c1ccc2cc3ccoc3cc2o1 [psoralen, reference compound] | – | – | inhibition of E. coli DNA gyrase activities (E. coli DNA gyrase [1]): is not a gyrase inhibitor
CCc1ccc(S(=O)(=O)/N=C2/C=C(Nc3cccc(C(=O)O)c3)C(=O)c3ccccc32)cc1 [Compound 17] | – | completely inhibited | IC50 (E. coli DNA gyrase [1]; [3]): 50 to 200 µM
O=C1c2ccccc2C(=O)c2cc(N3CCCCC3)ccc21 [Compound 206] | – | potently inhibited | IC50 (E. coli DNA gyrase [1]; [3]): 50 to 200 µM
CN(C)c1ccc(C=C2SC(=S)N(Cc3ccco3)C2=O)cc1 [Compound 228] | – | potently inhibited | IC50 (E. coli DNA gyrase [1]; [3]): 50 to 200 µM
Cc1onc(-c2ccccc2)c1C(=O)Nc1sccc1C#N [Compound 112] | potently inhibited | – | IC50 (E. coli DNA gyrase [1]; [3]): 50 to 200 µM
O=C(O[C@@H]1Cc2c(O)cc(O)cc2O[C@@H]1c1cc(O)c(O)c(O)c1)c1cc(O)c(O)c(O)c1 [EGCG, epigallocatechin gallate, reference compound] | – | – | inhibition of E. coli DNA gyrase activities (E. coli DNA gyrase [1]): strongly inhibit
O=C1/C(=C/c2ccc(O)cc2)SC(=S)N1CC1CCCO1 (centres unmarked) [Compound 61] | – | almost completely inhibited | IC50 (E. coli DNA gyrase [1]; [3]): 50 to 200 µM
COC1C(C)OC(OC2CC(C)(O)Cc3cc4c(c(O)c32)C(=O)c2c(O)cc3c(c2C4=O)OC2OC3(C)C(O)C(N(C)C)C2O)C(OC)C1(C)OC (centres unmarked) [Compound 224] | completely inhibited | completely inhibited | IC50 (E. coli DNA gyrase [1]; [4]): 25 to 50 µM
CC(=O)NC1=NC(=O)/C(=C/c2cc(C)n(-c3cccc(C(=O)O)c3)c2C)S1 [Compound 31] | – | completely inhibited | IC50 (E. coli DNA gyrase [1]; [3]): 50 to 200 µM
O=C1/C(=C\c2ccc(O)c([N+](=O)[O-])c2)SC(=S)N1Cc1ccccc1 [Compound 192] | completely inhibited | – | –
Cc1n[nH]c(SC(Cc2ccc(-c3cccc(Cl)c3)o2)C(=O)O)n1 (centres unmarked) [Compound 18] | completely inhibited | completely inhibited | IC50 (E. coli DNA gyrase [1]; [4]): 25 to 50 µM
Cc1cc(/C=C(/C#N)c2nc3ccccc3[nH]2)c(C)n1-c1cc(C(=O)O)cc(C(=O)O)c1 [Compound 63] | – | completely inhibited | IC50 (E. coli DNA gyrase [1]; [3]): 50 to 200 µM
Cc1cc(C)c(-c2nc3ccccc3s2)[nH]1 [Compound 13] | – | almost completely inhibited | IC50 (E. coli DNA gyrase [1]; [3]): 50 to 200 µM
O=C1NC(=S)S/C1=C/c1ccc(OC(=O)c2ccco2)cc1 [Compound 51] | – | almost completely inhibited | IC50 (E. coli DNA gyrase [1]; [3]): 50 to 200 µM
Cc1ccc([S+]([O-])c2ccc([N+](=O)[O-])c3nonc23)cc1 (centres unmarked) [Compound 222] | completely inhibited | completely inhibited | IC50 (E. coli DNA gyrase [1]; [4]): 25 to 50 µM
CC1=NN(c2nc(N)nc(/C(C#N)=C\c3ccc([N+](=O)[O-])o3)n2)C(C)(C)C1 [Compound 238] | – | completely inhibited | –
O=C(OC[C@H]1O[C@@H](OC(=O)c2cc(O)c(O)c(OC(=O)c3cc(O)c(O)c(O)c3)c2)[C@H](OC(=O)c2cc(O)c(O)c(OC(=O)c3cc(O)c(O)c(O)c3)c2)[C@@H](OC(=O)c2cc(O)c(O)c(OC(=O)c3cc(O)c(O)c(O)c3)c2)[C@@H]1OC(=O)c1cc(O)c(O)c(OC(=O)c2cc(O)c(O)c(O)c2)c1)c1cc(O)c(O)c(OC(=O)c2cc(O)c(O)c(O)c2)c1 [Tannic acid, tannic acid] | – | – | IC50 (E. coli DNA gyrase [2]; gel-based, read-out: IC50 against E. coli DNA gyrase): 1 µM

Compound | inhibition of E. coli DNA gyrase activities (E. coli DNA gyrase [2]; 50 µM of compounds) | inhibition of E. coli DNA gyrase activities (E. coli DNA gyrase [2]; 200 µM of compounds) | further results
O=C(O)CCCN1C(=O)C(=Cc2ccc(-c3nc4ccccc4s3)o2)SC1=S (single isomer, unassigned) [Compound 41] | – | – | IC50 (E. coli DNA gyrase [1]; IC50 (≤15 µM) IC50, Table 2): 1.48 µM
COc1cccc2nc3c(C(=O)NCCN(C)C)cccc3cc12.Cl [Compound 240] | – | completely inhibited | –
Cc1cc(C)c2c(c1)C(/N=N/c1cc([N+](=O)[O-])ccc1C)C(O)=N2 (centres unmarked) [Compound 114] | completely inhibited | – | –
CN1C[C@H](CNC(=O)OCc2ccccc2)C[C@@H]2c3cccc4c3c(cn4C)C[C@H]21 [Metergoline, metergoline, reference compound] | – | – | inhibition of E. coli DNA gyrase activities (E. coli DNA gyrase [1]): inhibits gyrase activities at 100 and 200 µM
O=C1NC(=S)S/C1=C/c1cc(Cl)cc(Cl)c1O [Compound 207] | inhibited | completely inhibited | –
O=C(O)c1cc(O)c2c(c1)C(=O)c1cccc(O)c1C2=O [rhein] | – | – | inhibition of E. coli DNA gyrase activities (E. coli DNA gyrase [1]): potently inhibited
Cc1cccc2c1N=C(O)C2/N=N/c1ccc(S(N)(=O)=O)cc1 (centres unmarked) [Compound 116] | completely inhibited | – | –
O=C(O)CCN1C(=O)/C(=C/c2ccc(-c3nc4ccccc4s3)o2)SC1=S [Compound 27] | completely inhibited | completely inhibited | –
N#C/C(=C\c1coc2ccc(O)cc2c1=O)C(=O)/N=c1\[nH]c2ccccc2s1 [Compound 165] | completely inhibited | – | –
CCOc1ccc2nc3cc(N)ccc3c(N)c2c1 [Compound 257] | – | completely inhibited | –
COc1ccc2c(c1)/c(=C\c1ccc(N(C)C)cc1)c1cc(-c3ccccc3)[n+](C)n12.O=S(=O)([O-])C(F)(F)F [Compound 237] | – | completely inhibited | –
CN(C)c1ccc(/C=c2\c3ccccc3n3c2cc(-c2ccccc2)[n+]3C)cc1 [Compound 236] | completely inhibited | completely inhibited | –
Nc1c2ccccc2nc2ccccc12 [Compound 247] | – | completely inhibited | –
Nc1ccc2cc3ccc(N)cc3nc2c1 [Compound 246] | – | completely inhibited | –
CN(C)CCNC(=O)c1cccc2nc3cccc(F)c3nc12.Cl [Compound 241] | – | completely inhibited | –
Cc1c2cc(O)c(=O)cc-2oc2cc(O)c(O)cc12 [methyl fluorone black] | – | – | IC50 (E. coli DNA gyrase [1]; read-out: IC50 against E. coli DNA gyrase): < 10 µM
CN1/C(=C/c2cc[n+](C)c3ccccc23)Sc2ccccc21.Cc1ccc(S(=O)(=O)[O-])cc1 [Compound 248] | – | completely inhibited | –
CC(C)(CS(=O)(=O)[O-])NC(=O)CC[N+](C)(C)CCO [Compound 42] | completely inhibited | completely inhibited | –
CSC1SC2C(=O)N(C)C(C(C)C)C(=O)OCC(NC(=O)c3cnc4ccccc4n3)C(=O)NC(C)C(=O)N(C)C1C(=O)N(C)C(C(C)C)C(=O)OCC(NC(=O)c1cnc3ccccc3n1)C(=O)NC(C)C(=O)N2C (centres unmarked) [Compound 258] | – | completely inhibited | –
Cc1cc(C)c2c(c1)C(=NNc1ccc(C)c(Cl)c1)C(O)=N2 [Compound 132] | completely inhibited | – | –
Brc1ccc2c(c1)-c1ccccc1C1=NCCN12 [Compound 217] | – | completely inhibited | –
CN(C)c1ccc2cc3ccc(N(C)C)cc3nc2c1 [Compound 249] | – | completely inhibited | –
O=c1oc2c(O)c(O)cc3c(=O)oc4c(O)c(O)cc1c4c23 [ellagic acid, reference compound] | – | – | inhibition of E. coli DNA gyrase activities (E. coli DNA gyrase [1]): strongly inhibit
